Assay results from patent publication US11767341B2, “Lincosamide antibiotics and uses thereof” (President and Fellows of Harvard College, priority 2017, dated 2023).
Converted amounts (≈) assume the structure as drawn. Read-outs that look alike come from different tables or passages of the source.

Experiments:
Test in all cases: MIC determination
Format in all cases: cell-based
S. aureus ATCC 29213 = conditions: Staphylococcus aureus
C. difficile BAA 1805 = conditions: Clostridioides difficile, BAA1805
E. coli MP-9 ΔTolC = conditions: Escherichia coli
H. influenzae ATCC 49247 = conditions: Haemophilus influenzae, ATCC49247
E. faecalis ATCC 29212 = conditions: Enterococcus faecalis
E. coli ATCC 25922 = conditions: Escherichia coli
K. pneumoniae ATCC 10031 = conditions: Klebsiella pneumoniae, ATCC10031
S. aureus BAA 977 iErmA = conditions: Staphylococcus aureus, BAA977
[1] = test system: E. coli MP-74 LptD mutant; conditions: Escherichia coli
S. pyogenes ATCC 19615 = conditions: Streptococcus pyogenes, ATCC19615; S. pyogenes ATCC 19615; read-out: MIC
S. pneumoniae ATCC 49619 = conditions: Streptococcus pneumoniae, ATCC49619
[2] = test system: S. aureus MP-549 msr(a) USA 300; conditions: Staphylococcus aureus, USA300, S. aureus MP-549 msr(a) USA 300
S. aureus MMX 3035 cErmA = conditions: Staphylococcus aureus, MMX3035CERMA; S. aureus MMX 3035 cErmA; read-out: MIC
[3] = test system: E. faecalis MMX 847 Macrolide-Resistant; conditions: Enterococcus faecalis, read-out: MIC
[4] = test system: S. pneumoniae MMX 3031 cMefA; conditions: Streptococcus pneumoniae, MMX3031CMEFA
[5] = test system: S. pyogenes MMX 946 Macrolide-Resistant; conditions: Streptococcus pyogenes, read-out: MIC
[6] = test system: S. pneumoniae MMX 3028 cErmB; conditions: Streptococcus pneumoniae, MMX3028CERMB
[7] = ATCC29213, S. aureus ATCC 29213, read-out: MIC
[8] = H. influenzae ATCC 49247, read-out: MIC
[9] = ATCC25922, E. coli ATCC 25922, read-out: MIC
[10] = S. pneumoniae ATCC 49619, read-out: MIC
[11] = K. pneumoniae ATCC 10031, read-out: MIC
[12] = S. pneumoniae MMX 3028 cErmB, read-out: MIC

| Compound | MIC (S. aureus ATCC 29213; ATCC29213) [µg/mL] | MIC (C. difficile BAA 1805) [µg/mL] | MIC (E. coli MP-9 ΔTolC) [µg/mL] | MIC (H. influenzae ATCC 49247) [µg/mL] | MIC (E. faecalis ATCC 29212; ATCC29212) [µg/mL] | MIC (E. coli ATCC 25922; ATCC25922) [µg/mL] | MIC (K. pneumoniae ATCC 10031) [µg/mL] | MIC (S. aureus BAA 977 iErmA) [µg/mL] | MIC [1] [µg/mL] | MIC (S. pyogenes ATCC 19615) [µg/mL] | MIC [2] [µg/mL] | MIC (S. aureus MMX 3035 cErmA) [µg/mL] | MIC (S. aureus ATCC 29213; [7]) [µg/mL] | MIC [4] [µg/mL] | MIC (E. faecalis ATCC 29212; ATCC29212, read-out: MIC) [µg/mL] | MIC (E. coli ATCC 25922; [9]) [µg/mL] | MIC (S. pneumoniae ATCC 49619; [10]) [µg/mL] | MIC ([3]; E. faecalis MMX 847 MacRes) [µg/mL] | MIC ([5]; S. pyogenes MMX 946 MacRes) [µg/mL] | MIC [6, 12] [µg/mL] | other results |
| --- | --- | --- | --- | --- | --- | --- | --- | --- | --- | --- | --- | --- | --- | --- | --- | --- | --- | --- | --- | --- | --- |
| CSC1O[C@H]([C@H](NC(=O)[C@H]2NC[C@@H]3CC(N)CCO[C@H]32)[C@H](C)Cl)C(O)[C@@H](O)[C@H]1O (stereo partly shown) [FSA-510012] | > 64 | > 64 | > 64 | > 64 | > 64 | > 64 | > 64 | > 64 | > 64 | 32 (≈ 70.5 µM) | > 64 |  |  |  |  |  |  |  |  |  | MIC (S. pneumoniae ATCC 49619): > 64 µg/mL |
| CNC1CCO[C@@H]2[C@H](CN[C@@H]2C(=O)N[C@H]([C@H](C)Cl)[C@H]2OC(SC)[C@H](O)[C@H](O)C2O)C1 (stereo partly shown) [FSA-510065] | > 64 | > 64 | > 64 | > 64 | > 64 | > 64 | > 64 | > 64 | > 64 | 32 (≈ 68.4 µM) | > 64 |  |  |  |  |  |  |  |  |  | MIC (S. pneumoniae ATCC 49619): > 64 µg/mL |
| CSC1O[C@H]([C@H](NC(=O)[C@H]2NC[C@@H]3C=C(c4cc(F)cc(F)c4)CCO[C@@H]23)[C@H](C)Cl)C(O)[C@@H](O)[C@H]1O (stereo partly shown) [FSA-511074] |  |  | 64 (≈ 117 µM) |  |  |  | 64 (≈ 117 µM) | 2 (≈ 3.64 µM) | 64 (≈ 117 µM) | 0.5 (≈ 0.911 µM) | 1 (≈ 1.82 µM) | > 64 | 2 (≈ 3.64 µM) | 0.25 (≈ 0.455 µM) | 4 (≈ 7.29 µM) | > 64 | 0.25 (≈ 0.455 µM) |  |  |  | MIC ([3]; E. faecalis MMX 847 Macrolide-Resistant (MacRes)): > 64 µg/mL; MIC ([5]; S. pyogenes MMX 946 Macrolide-Resistant (MacRes)): > 64 µg/mL; MIC (H. influenzae ATCC 49247; [8]): > 64 µg/mL; MIC [6]: 64 µg/mL (≈ 117 µM) |
| CSC1O[C@H]([C@H](NC(=O)[C@H]2NC[C@@H]3C[C@@H](c4cccc(F)c4)CCO[C@H]32)[C@H](C)Cl)C(O)[C@@H](O)[C@H]1O (stereo partly shown) [FSA-511077] |  |  | 4 (≈ 7.5 µM) | 16 (≈ 30 µM) |  |  |  | 0.25 (≈ 0.469 µM) | 16 (≈ 30 µM) | ≤ 0.06 | 0.25 (≈ 0.469 µM) | > 64 | 0.25 (≈ 0.469 µM) | ≤ 0.06 | 0.5 (≈ 0.938 µM) | > 64 | ≤ 0.06 | 64 (≈ 120 µM) | 32 (≈ 60 µM) | 8 (≈ 15 µM) | MIC (K. pneumoniae ATCC 10031; [11]): 8 µg/mL (≈ 15 µM) |
| CSC1O[C@H]([C@H](NC(=O)[C@H]2NC[C@@H]3C[C@@H](c4ccc(F)cc4F)CCO[C@H]32)[C@H](C)Cl)C(O)[C@@H](O)[C@H]1O (stereo partly shown) [FSA-511078] |  |  | 2 (≈ 3.63 µM) |  |  |  |  | 0.25 (≈ 0.454 µM) | 8 (≈ 14.5 µM) | ≤ 0.06 | 0.12 (≈ 0.218 µM) | > 64 | 0.25 (≈ 0.454 µM) | ≤ 0.06 | 0.25 (≈ 0.454 µM) | > 64 | ≤ 0.06 | 64 (≈ 116 µM) | 16 (≈ 29 µM) | 4 (≈ 7.26 µM) | MIC (H. influenzae ATCC 49247; [8]): 16 µg/mL (≈ 29 µM); MIC (K. pneumoniae ATCC 10031; [11]): 8 µg/mL (≈ 14.5 µM) |
| CSC1O[C@H]([C@H](NC(=O)[C@H]2NC[C@@H]3C[C@@H](c4cc(F)cc(F)c4)CCO[C@H]32)[C@H](C)Cl)C(O)[C@@H](O)[C@H]1O (stereo partly shown) [FSA-511080] |  |  | 4 (≈ 7.26 µM) | 16 (≈ 29 µM) |  |  | 16 (≈ 29 µM) | 0.25 (≈ 0.454 µM) | 16 (≈ 29 µM) | ≤ 0.06 | 0.25 (≈ 0.454 µM) | > 64 | 0.12 (≈ 0.218 µM) | ≤ 0.06 | 0.5 (≈ 0.907 µM) | > 64 | ≤ 0.06 | > 64 | 32 (≈ 58.1 µM) | 8 (≈ 14.5 µM) |  |
